Experimental data from ChEMBL document CHEMBL5325415, “Falcipains: Biochemistry, target validation and structure-activity relationship studies of inhibitors as antimalarials” (Eur J Med Chem, 2023).
In brackets after ≈: the same amount, converted by molar mass. *1 amine or outer side, *2 acyl side, *3 side chain or, on linkers, in order; H or OH if unused. Where a SMILES comes first, the peptide text is derived from it. [ ]: non-standard residue; d: D form. The star is where a group is joined. hPhe = N[C@@H](CCc1ccccc1)C(=O)O; Morpholide = C1CN(*)CCO1; CO = O=C([*:1])[*:2]; CH2F = FC*

Legend:
Plasmodium falciparum [1] = experiment: Antimalarial activity against chloroquine-sensitive Plasmodium falciparum 3D7 infected in RBC measured after 24 to 30 hrs by microscopic analysis; type: functional, organism-based; conditions: 3D7, Erythrocyte
Plasmodium falciparum [2] = experiment: Antimalarial activity against chloroquine-resistant Plasmodium falciparum RKL9 infected in RBC measured after 24 to 30 hrs by microscopic analysis; type: functional, organism-based; conditions: RKL9, Erythrocyte
Falcipain 2 [3] = target: T1, Falcipain 2 (Plasmodium falciparum, UniProt Q9N6S8); experiment: Inhibition of Plasmodium falciparum FP-2 using Cbz-Phe-Arg-AMC as substrate pretreated with enzyme for 10 mins followed by substrate addition and measured after 10 mins by fluorescence based analysis
T1 sequence (Q9N6S8 whole entry): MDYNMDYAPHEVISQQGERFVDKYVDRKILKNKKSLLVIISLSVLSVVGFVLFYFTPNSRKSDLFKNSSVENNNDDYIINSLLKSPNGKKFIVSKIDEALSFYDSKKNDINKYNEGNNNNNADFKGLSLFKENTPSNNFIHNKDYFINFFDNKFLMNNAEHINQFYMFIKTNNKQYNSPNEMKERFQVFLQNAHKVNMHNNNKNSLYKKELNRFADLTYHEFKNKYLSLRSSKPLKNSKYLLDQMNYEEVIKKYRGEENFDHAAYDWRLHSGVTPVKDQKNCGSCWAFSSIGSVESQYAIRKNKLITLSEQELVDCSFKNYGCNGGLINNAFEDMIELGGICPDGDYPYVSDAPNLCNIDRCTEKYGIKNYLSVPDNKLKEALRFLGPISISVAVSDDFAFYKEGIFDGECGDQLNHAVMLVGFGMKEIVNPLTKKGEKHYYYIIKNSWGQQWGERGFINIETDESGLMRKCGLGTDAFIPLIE

Plasmodium falciparum [4] = experiment: Antiplasmodial activity against Plasmodium falciparum 3D7 infected in human erythrocytes assessed as growth inhibition measured after 52 hrs by SYBR green dye based assay; type: functional, organism-based; conditions: 3D7, Erythrocyte
Falcipain 2 [5] = target: T1, Falcipain 2; experiment: Inhibition of Plasmodium falciparum FP2 using ZFR-AMC as substrate preincubated with enzyme for 10 mins followed by substrate addition and measured for 30 mins by fluorimetric analysis
Falcipain 2 [6] = target: T1, Falcipain 2; experiment: Inhibition of Plasmodium falciparum FP-2 using Z-Leu-Arg-AMC as substrate pretreated with enzyme for 30 mins followed by substrate addition and measured for 30 mins by spectrofluorometry
Plasmodium falciparum [7] = experiment: Antimalarial activity against Chloroquine-sensitive Plasmodium falciparum 3D7 infected in human erythrocytes assessed as inhibition of parasite growth incubated for 72 hrs by Giemsa staining based analysis; type: functional, organism-based; conditions: 3D7, Erythrocyte
Falcipain 2 [8] = target: T1, Falcipain 2; experiment: Inhibition of Plasmodium falciparum trophozite extracts FP-2
Plasmodium falciparum [9] = experiment: Antimalarial activity against Chloroquine-resistant Plasmodium falciparum RKL9 infected in human erythrocytes assessed as inhibition of parasite growth incubated for 72 hrs by Giemsa staining based analysis; type: functional, organism-based; conditions: RKL9, Erythrocyte
[10] = target: T2, Falcipain 2 (Plasmodium falciparum) (UniProt Q9N6S8); experiment: Inhibition of Plasmodium falciparum FP-2 using Z-Leu-Arg-AMC as substrate at 10 uM pretreated with enzyme for 30 mins followed by substrate addition and measured for 30 mins by spectrofluorometry; conditions: time 60.0 min
T2 sequence (whole entry): T1 sequence (Q9N6S8 whole entry)

Falcipain 2 [11] = target: T1, Falcipain 2; experiment: Inhibition of Plasmodium falciparum Itg2 trophozite extracts FP-2 using Z-phe-Arg-AMC as substrate pretreated with enzyme for 30 mins followed by substrate addition and measured for 30 mins by spectrofluorometry

## C(=C\c1cn(-c2ccccc2)nc1-c1ccccc1)/c1nnc(-c2ccco2)o1
Plasmodium falciparum [1]
  IC50: 0.248 µg/mL (≈ 0.652 µM)
Plasmodium falciparum [2]
  IC50: 0.863 µg/mL (≈ 2.27 µM)
Falcipain 2 [3]
  IC50: 14 µM

## CC(=O)Nc1ccc(S(=O)(=O)N2CCN(C(=O)c3cc(-c4ccc(OC(F)(F)F)cc4)nc4ccccc34)CC2)cc1
Plasmodium falciparum [4]
  EC50: 1.43 µM
Falcipain 2 [5]
  IC50: 2.64 µM

## C[C@H]1[C@H](OC(=O)c2ccc(/C=N/NC(=O)Nc3ccc(F)cc3)cc2)O[C@@H]2O[C@@]3(C)CC[C@H]4[C@H](C)CC[C@@H]1[C@@]24OO3
Falcipain 2 [6]
  IC50: 0.65 µM

## CCOc1cccc(NC(=S)N/N=C/c2ccc(O[C@H]3O[C@@H]4O[C@@]5(C)CC[C@H]6[C@H](C)CC[C@@H]([C@H]3C)[C@@]46OO5)cc2)c1
Falcipain 2 [6]
  IC50: 0.52 µM

## N#C/C(=C\c1cccc(Cl)c1)c1nc2ccccc2[nH]1
Plasmodium falciparum [7]
  IC50: 24.8 µM

## O=C(c1cc(Cl)nc2ccccc12)N1CCN(c2ccnc3cc(Cl)ccc23)CC1
Plasmodium falciparum [4]
  EC50: 1.05 µM
Falcipain 2 [5]
  IC50: 4.78 µM

## COc1ccc(-n2cc(COc3ccnc4cc(Cl)ccc34)nn2)cc1
Plasmodium falciparum [4]
  EC50: 51.7 µM
Falcipain 2 [5]
  IC50: 25.4 µM

## CC(=O)Nc1ccc(S(=O)(=O)N2CCN(C(=O)c3cc(Cl)nc4ccccc34)CC2)cc1
Plasmodium falciparum [4]
  EC50: 1.95 µM
Falcipain 2 [5]
  IC50: 7.37 µM

## C(=C\c1cn(-c2ccccc2)nc1-c1ccccc1)/c1nnc(-c2c[nH]c3ccccc23)o1
Plasmodium falciparum [1]
  IC50: 0.245 µg/mL (≈ 0.57 µM)
Plasmodium falciparum [2]
  IC50: 0.724 µg/mL (≈ 1.69 µM)
Falcipain 2 [3]
  IC50: 7 µM

## N#C/C(=C\c1ccc([N+](=O)[O-])cc1)c1nc2ccccc2[nH]1
Plasmodium falciparum [7]
  IC50: 68.9 µM

## CC(C)C[C@H](NC(=O)N1CCOCC1)C(=O)N[C@@H](CCc1ccccc1)C(=O)CF ({Morpholide-CO}-Leu-[hPhe]-CH2F)
Falcipain 2 [8]
  IC50: 0.00042 µM

## COc1ccc(-c2cc(C(=O)N3CCN(S(=O)(=O)c4ccc(NC(C)=O)cc4)CC3)c3ccccc3n2)cc1
Plasmodium falciparum [4]
  EC50: 0.81 µM
Falcipain 2 [5]
  IC50: 2.14 µM

## COc1ccc(/C=C(\C#N)c2nc3ccccc3[nH]2)cc1O
Plasmodium falciparum [7]
  IC50: 1.61 µM
Plasmodium falciparum [9]
  IC50: 5.46 µM

## C=CCn1c(SCC(=O)Nc2sc3c(c2C(N)=O)CCC3)nc2scc(-c3ccccc3)c2c1=O
Falcipain 2 [6]
  IC50: 2.81 µM
[10]
  inhibition: 88.7%

## COc1ccc(-c2nccc3ccc(Cc4ccccc4)cc23)cc1
Falcipain 2 [11]
  IC50: 10 µM

## O=C(c1cc(-c2ccccc2)nc2ccccc12)N1CCN(c2cc(=O)[nH]c3ccccc23)CC1
Plasmodium falciparum [4]
  EC50: 20.2 µM
Falcipain 2 [5]
  IC50: 13 µM

## O=C(N[C@H](Cc1c[nH]c2ccccc12)C(=O)NCc1ccc([N+](=O)[O-])cc1)Oc1ccccc1
Falcipain 2 [6]
  IC50: 10 µM
[10]
  inhibition: 49.5%

## N#C/C(=C\c1ccc(O)cc1)c1nc2ccccc2[nH]1
Plasmodium falciparum [7]
  IC50: 47.6 µM

## Cc1ccc(-c2nn(-c3ccccc3)cc2/C=C/c2nnc(-c3ccc([N+](=O)[O-])cc3)o2)cc1
Plasmodium falciparum [1]
  IC50: 0.486 µg/mL (≈ 1.08 µM)
Plasmodium falciparum [2]
  IC50: 1.57 µg/mL (≈ 3.5 µM)
Falcipain 2 [3]
  IC50: 16 µM

## O=C(N[C@H](Cc1c[nH]c2ccccc12)C(=O)NCc1ccccc1)Oc1ccccc1
Falcipain 2 [6]
  IC50: 29.7 µM
[10]
  inhibition: 29.4%

## Cc1cc(C)cc(NC(=O)N/N=C/c2ccc(C(=O)O[C@@H]3O[C@@H]4O[C@@]5(C)CC[C@H]6[C@H](C)CC[C@@H]([C@H]3C)[C@@]46OO5)cc2)c1
Falcipain 2 [6]
  IC50: 0.57 µM

## COc1cc2ccnc(-c3ccc(OCc4ccccc4)cc3)c2cc1OC
Falcipain 2 [11]
  IC50: 3 µM

## Cc1ccc(-n2cc(COc3ccnc4cc(Cl)ccc34)nn2)cc1
Plasmodium falciparum [4]
  EC50: 49.5 µM
Falcipain 2 [5]
  IC50: 26.6 µM

## N#C/C(=C\c1cccc(F)c1)c1nc2ccccc2[nH]1
Plasmodium falciparum [7]
  IC50: 22.2 µM
Plasmodium falciparum [9]
  IC50: 53.3 µM

## O=C(Cc1ccccc1)N[C@H](Cc1c[nH]c2ccccc12)C(=O)NCc1ccccc1
Falcipain 2 [6]
  IC50: 39.4 µM
[10]
  inhibition: 25.7%
